Data reported in PubChem BioAssay AID328 (DTP/NCI, 2004).
Values joined by “and” are separate entries in the source; they are usually repeats but may differ in a detail not shown here. Equal values may be shown once. Toxic doses and inconclusive results are not listed.

Test system: BDF1 mice, P388 leukemia ip, median survival T/C
Assay: NCI In Vivo Anticancer Drug Screen. Data for tumor model P388 Leukemia (intraperitoneal) in B6D2F1 (BDF1) mice
Settings: endpoint: median survival time, higher = longer survival
Summary of the method: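 Mice carrying the transplantable tumour receive compound or vehicle. Survival is followed in each arm, and the treated measure is divided by the vehicle measure.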

[1] = dose: 100.0 mg/kg/injection, schedule: Q01DX001 (ip), vehicle: Klucel (hydroxypropylcellulose) (HPC)
[2] = dose: 200.0 mg/kg/injection, schedule: Q01DX001 (ip), vehicle: Klucel (hydroxypropylcellulose) (HPC)
[3] = dose: 50.0 mg/kg/injection, schedule: Q01DX009 (ip), vehicle: saline with Tween-80
[4] = dose: 50.0 mg/kg/injection, schedule: Q04DX003 (ip), vehicle: saline

## CCC[CH2][Sn](=[S])[CH2]CCC
dose: 0.59 mg/kg/injection, schedule: Q01DX009 (ip), vehicle: other
  T/C: 111 % of control
dose: 1.33 mg/kg/injection, schedule: Q01DX009 (ip), vehicle: other
  T/C: 115 % of control
dose: 1.56 mg/kg/injection, schedule: Q04DX003 (ip), vehicle: other
  T/C: 109 % of control
dose: 2.66 mg/kg/injection, schedule: Q04DX003 (ip), vehicle: other
  T/C: 109 % of control
dose: 3.13 mg/kg/injection, schedule: Q04DX003 (ip), vehicle: other
  T/C: 116 % of control
dose: 6.25 mg/kg/injection, schedule: Q04DX003 (ip), vehicle: other
  T/C: 156 % of control
dose: 200.0 mg/kg/injection, schedule: Q01DX010 (ip), vehicle: carboxymethylcellulose (CMC)
  T/C: 110 % of control

## O=C(NCCNC(=O)c1cccc([N+](=O)[O-])c1O)c1cccc([N+](=O)[O-])c1O
dose: 50.0 mg/kg/injection, schedule: Q01DX001 (ip), vehicle: Klucel (hydroxypropylcellulose) (HPC)
  T/C: 100 % of control
[1]
  T/C: 100 % of control
[2]
  T/C: 104 % of control

## O=C1C=CN(C2OC(CO)C(O)C2O)C(=O)C1 (configuration not stated)
dose: 22.0 mg/kg/injection, schedule: Q01DX009 (ip), vehicle: saline
  T/C: 103 % of control
dose: 33.0 mg/kg/injection, schedule: Q01DX009 (ip), vehicle: saline
  T/C: 107 % of control
dose: 50.0 mg/kg/injection, schedule: Q01DX009 (ip), vehicle: saline
  T/C: 87 % of control and 101 % of control (2×)
dose: 75.0 mg/kg/injection, schedule: Q01DX009 (ip), vehicle: saline
  T/C: 110 % of control
dose: 100.0 mg/kg/injection, schedule: Q01DX009 (ip), vehicle: saline
  T/C: 87 % of control
dose: 200.0 mg/kg/injection, schedule: Q01DX009 (ip), vehicle: saline
  T/C: 91 % of control
dose: 400.0 mg/kg/injection, schedule: Q01DX009 (ip), vehicle: saline
  T/C: 100 % of control

## CC1(C)O[Te]2(OC1(C)C)OC(C)(C)C(C)(C)O2
dose: 12.5 mg/kg/injection, schedule: Q01DX001 (ip), vehicle: saline with Tween-80
  T/C: 104 % of control
dose: 25.0 mg/kg/injection, schedule: Q01DX001 (ip), vehicle: saline with Tween-80
  T/C: 113 % of control

## O=C1CCC([N+](=O)[O-])C(c2ccccc2Cl)N1 (configuration not stated)
[3]
  T/C: 99 % of control
dose: 100.0 mg/kg/injection, schedule: Q01DX009 (ip), vehicle: saline with Tween-80
  T/C: 86 % of control
dose: 200.0 mg/kg/injection, schedule: Q01DX009 (ip), vehicle: saline with Tween-80
  T/C: 94 % of control

## CCN(CC)C(=S)S
dose: 100.0 mg/kg/injection, schedule: Q01DX009 (ip), vehicle: saline sonified
  T/C: 104 % of control
dose: 200.0 mg/kg/injection, schedule: Q01DX009 (ip), vehicle: saline sonified
  T/C: 100 % of control
dose: 400.0 mg/kg/injection, schedule: Q01DX009 (ip), vehicle: saline sonified
  T/C: 118 % of control
dose: 400.0 mg/kg/injection, schedule: Q01DX010 (ip), vehicle: water
  T/C: 100 % of control

## CC(=O)Nc1ccc2c(Nc3ccc(NS(C)(=O)=O)cc3)c3ccccc3nc2c1
dose: 0.73 mg/kg/injection, schedule: Q01DX009 (ip), vehicle: saline
  T/C: 254 % of control
dose: 0.88 mg/kg/injection, schedule: Q04DX003 (ip), vehicle: saline
  T/C: 163 % of control
dose: 1.1 mg/kg/injection, schedule: Q01DX009 (ip), vehicle: saline
  T/C: 260 % of control
dose: 1.32 mg/kg/injection, schedule: Q04DX003 (ip), vehicle: saline
  T/C: 195 % of control
dose: 1.65 mg/kg/injection, schedule: Q01DX009 (ip), vehicle: saline
  T/C: 260 % of control
dose: 2.0 mg/kg/injection, schedule: Q04DX003 (ip), vehicle: saline
  T/C: 200 % of control
dose: 2.5 mg/kg/injection, schedule: Q01DX009 (ip), vehicle: saline
  T/C: 252 % of control and 262 % of control
dose: 3.0 mg/kg/injection, schedule: Q04DX003 (ip), vehicle: saline
  T/C: 195 % of control
dose: 5.0 mg/kg/injection, schedule: Q01DX009 (ip), vehicle: saline
  T/C: 92 % of control
dose: 5.56 mg/kg/injection, schedule: Q04DX003 (ip), vehicle: saline
  T/C: 250 % of control
dose: 5.6 mg/kg/injection, schedule: Q04DX003 (ip), vehicle: saline
  T/C: 236 % of control
dose: 8.3 mg/kg/injection, schedule: Q04DX003 (ip), vehicle: saline
  T/C: 281 % of control
dose: 8.33 mg/kg/injection, schedule: Q04DX003 (ip), vehicle: saline
  T/C: 250 % of control
dose: 12.5 mg/kg/injection, schedule: Q04DX003 (ip), vehicle: saline
  T/C: 250 % of control and 272 % of control and 281 % of control
dose: 18.7 mg/kg/injection, schedule: Q04DX003 (ip), vehicle: saline
  T/C: 250 % of control and 277 % of control
dose: 25.0 mg/kg/injection, schedule: Q04DX003 (ip), vehicle: saline
  T/C: 122 % of control
dose: 18.0 micrograms/kg/injection, schedule: Q04DX003 (ip), vehicle: saline
  T/C: 104 % of control
dose: 27.0 micrograms/kg/injection, schedule: Q04DX003 (ip), vehicle: saline
  T/C: 109 % of control
dose: 40.0 micrograms/kg/injection, schedule: Q04DX003 (ip), vehicle: saline
  T/C: 113 % of control

## C#CC(OC(=O)NC1CCCCC1)(c1ccccc1)c1ccccc1
dose: 16.5 mg/kg/injection, schedule: Q01DX009 (ip), vehicle: saline with Tween-80
  T/C: 98 % of control
dose: 25.0 mg/kg/injection, schedule: Q01DX009 (ip), vehicle: saline with Tween-80
  T/C: 215 % of control
dose: 37.5 mg/kg/injection, schedule: Q01DX009 (ip), vehicle: saline with Tween-80
  T/C: 213 % of control
[3]
  T/C: 190 % of control
dose: 88.0 mg/kg/injection, schedule: Q04DX003 (ip), vehicle: saline with Tween-80
  T/C: 183 % of control
dose: 132.0 mg/kg/injection, schedule: Q04DX003 (ip), vehicle: saline with Tween-80
  T/C: 187 % of control
dose: 200.0 mg/kg/injection, schedule: Q04DX003 (ip), vehicle: saline with Tween-80
  T/C: 116 % of control

## O=[N+]([O-])c1cccc2ccc(N/N=C/c3ccccc3O)nc12
dose: 10.0 mg/kg/injection, schedule: Q01DX009 (ip), vehicle: Klucel (hydroxypropylcellulose) (HPC)
  T/C: 96 % of control
dose: 20.0 mg/kg/injection, schedule: Q01DX009 (ip), vehicle: Klucel (hydroxypropylcellulose) (HPC)
  T/C: 122 % of control
dose: 40.0 mg/kg/injection, schedule: Q01DX009 (ip), vehicle: Klucel (hydroxypropylcellulose) (HPC)
  T/C: 111 % of control

## O=C(O)c1ccc(S(=O)(=O)O)cc1C(=O)O
[4]
  T/C: 104 % of control
dose: 100.0 mg/kg/injection, schedule: Q04DX003 (ip), vehicle: saline
  T/C: 100 % of control
dose: 200.0 mg/kg/injection, schedule: Q04DX003 (ip), vehicle: saline
  T/C: 91 % of control

## Clc1ccc(C#Cc2ccc(Cl)cc2)cc1
dose: 6.25 mg/kg/injection, schedule: Q04DX003 (ip), vehicle: saline with Tween-80
  T/C: 92 % of control
dose: 12.5 mg/kg/injection, schedule: Q04DX003 (ip), vehicle: saline with Tween-80
  T/C: 92 % of control
dose: 25.0 mg/kg/injection, schedule: Q04DX003 (ip), vehicle: saline with Tween-80
  T/C: 96 % of control

## CN(C)N=Nc1ccc(NC(N)=O)cc1
dose: 25.0 mg/kg/injection, schedule: Q04DX003 (ip), vehicle: saline + Tween-80 + alcohol
  T/C: 112 % of control

## CCCC1CC[N-]CC1.CCCC1CC[N-]CC1.CCCC1CC[N-]CC1.CCCC1CC[N-]CC1.[Cl][Ni][Cl]
dose: 2.0 mg/kg/injection, schedule: Q01DX009 (ip), vehicle: saline
  T/C: 116 % of control
dose: 4.0 mg/kg/injection, schedule: Q01DX009 (ip), vehicle: saline
  T/C: 97 % of control
dose: 6.25 mg/kg/injection, schedule: Q01DX009 (ip), vehicle: saline
  T/C: 112 % of control
dose: 8.0 mg/kg/injection, schedule: Q01DX009 (ip), vehicle: saline
  T/C: 116 % of control
[4]
  T/C: 100 % of control

## O=[N+]([O-])c1ccc(N2CCN(CCO)CC2)c2c1no[n+]2[O-]
dose: 15.0 mg/kg/injection, schedule: Q01DX009 (ip), vehicle: saline with Tween-80
  T/C: 154 % of control
dose: 30.0 mg/kg/injection, schedule: Q01DX009 (ip), vehicle: saline with Tween-80
  T/C: 161 % of control

## CN(C)c1ccc(C=C(C#N)C#N)cc1
dose: 100.0 mg/kg/injection, schedule: Q04DX003 (ip), vehicle: Klucel (hydroxypropylcellulose) (HPC)
  T/C: 100 % of control
dose: 200.0 mg/kg/injection, schedule: Q01DX009 (ip), vehicle: Klucel (hydroxypropylcellulose) (HPC)
  T/C: 90 % of control
dose: 200.0 mg/kg/injection, schedule: Q04DX003 (ip), vehicle: Klucel (hydroxypropylcellulose) (HPC)
  T/C: 100 % of control
dose: 400.0 mg/kg/injection, schedule: Q01DX009 (ip), vehicle: Klucel (hydroxypropylcellulose) (HPC)
  T/C: 113 % of control
dose: 400.0 mg/kg/injection, schedule: Q04DX003 (ip), vehicle: Klucel (hydroxypropylcellulose) (HPC)
  T/C: 90 % of control

## CCCCCCC(O)CCc1ccccc1 (configuration not stated)
[1]
  T/C: 100 % of control
[2]
  T/C: 95 % of control
dose: 400.0 mg/kg/injection, schedule: Q01DX001 (ip), vehicle: Klucel (hydroxypropylcellulose) (HPC)
  T/C: 104 % of control
